Assay results published in patent US9062275B2, “Compositions rich in omega-3 fatty acids with a low content in phytanic acid” (NATAC PHARMA, S.L., priority 2009, dated 2015).

How the values were obtained:
[1] = system: photoreceptors; assay: Paraquat-induced photoreceptor apoptosis in vitro; assay type: cell-based, Wistar albino rats
Protocol: Tyramide signal amplification (TSA)-FISH PerkinElmer, Boston, Mass., USA.); secondary antibodies, monoclonal antibodies to-Bax (sc-7480), Bcl-2 (sc-7382), rodopsine RET-P1 (sc-57433) (Santa Cruz Biotechnology, Inc.—USA), PhA, Docosahexaenoic acid, Paraquat Dichloride, (Sigma-Alldrich). Solvents and reactors had HPLC and analytic grade.
Purified cultures of neurons from Wistar albino rats were prepared according to Politi et al., (1966) and treated in a poli-ornithine medium as in Adler-R (1982). On the first day of culture, equal concentrations of DHA (9 mM) were added to neuron cultures, with 7 different concentrations of PhA ([…]), usually found in marine origin oils rich in DHA, and 2 controls without DHA, with or without Paraquat. On the third day of culture, Paraquat was added, incubating it for 24 h before fixing it for an hour with paraformaldehyde in a phosphate buffered saline (0.9% NaCl in 0.01 M NaH2PO4 [pH 7.4], following 15 minutes with Triton X-100 (0.1%). In the apoptosis, the expression of Bax and Bcl-2 was determined and quantified according to the method Rotstein-N P et al. (2003). For the cytochemical studies, 10 fields/samples were randomly quantified, where results represent the of 3 samples/plate mean for each concentration of DHA with PhA.

[2] = system: retinas from rats; assay: MNU-induced retinal apoptosis in vivo
Protocol: The same materials and immunohystochemical and quantification methods as in Experiment A were used. Instead of using Paraquat for inducing apoptosis, N-Nitroso-N-methylurea (MNU) (Sigma-Alldrich) was used. Instead of analysing cultures in vitro, as in Experiment A, retins from sacrificed Wistar albino rats were analysed. For that purpose, 8 rats S-D with 42 days of age were selected and fed for 4 weeks with a standard basal diet. Each animal was fed in a different way: one rat was on a standard on control diet, while for the other 7 rats this diet was modified with DHA at 15%, having different concentrations of PhA as in Experiment A: 0/4/20/100/500/2500/12500 μgPhA/g of oil. After these 4 weeks, they were injected a single intraperitoneal injection of MNU (75 mg/kg body weight). All rats were on the same diet for 6 days, being sacrificed at the 7th day, after having fast for 24 hours, when the extraction of retinas was carried out, following the fixation and immunohystochemical processes as in Experiment A. For the cytochemical studies, 10 fields/samples were randomly quantified, where results represent the 10 eye/sample mean.

[3] = system: leukotrienes, prostaglandin E2, prostaglandin F2; details: cited from earlier work
[4] = toxic at doses as low as; cited from earlier work
[5] = DHA oils <5 μg/g of PhA compared with larger concentrations

For `CC/C=C\C/C=C\C/C=C\C/C=C\C/C=C\C/C=C\CCC(=O)O` [DHA], the “anti-apoptotic activity in photoreceptors” value ([1]; DHA 9 mM with 0 and 4 μg/g of PhA, compared with ≧20 and ≧100 μg/g) was “notably higher”, the “inhibitory activity of apoptosis (FIG. 1)” value [1, 5] was “greater inhibitory activity of apoptosis” and the “oxidative stress produced (FIG. 1)” value [1, 5] was “less”. For the same molecule, the “anti-apoptotic activity in photoreceptors” value ([1]; DHA with ≧20 μg/g and ≧100 μg/g of PhA) was “significantly reduced”, the “activity to inhibit apoptosis of photoreceptors” value ([1]; PhA concentration 2500 μg/g) was “neutralised” and the apoptosis of photoreceptors ([1]; PhA concentrations higher than 2500 μg/g) was “apoptosis of photoreceptors is induced”. For the same molecule, the “oxidative stress (Bcl-2/Bax index)” value ([1]; PhA ≦20 μg/g compared with ≧100 μg/g) was “significantly less oxidative stress”, the “ratio Bcl-2/Bax” value ([2]; 20 μg/g of PhA versus rats fed with <5 μg/g) was “significantly lower” and the “neutralisation of the inhibitor effect of the apoptosis” value ([2]; PhA up to 12500 μgPhA/g of oil) was “no neutralisation”. The “anti-apoptotic activity in photoreceptors” value ([2]; diet with DHA at 15%, PhA between 0 and 20 μg/g, MNU 75 mg/kg i.p.) was “greater anti-apoptotic activity”, the “physiological activity as an inhibitor of apoptosis (FIG. 2)” value ([2]; oral consumption of DHA <5 μg/g of PhA) was “greater physiological activity” and the “anti-apoptotic activity and markers Bax and Bcl-2 with regards to DHA without PhA added” value ([2]; rats fed with DHA <5 μg/g) was “do not reveal alterations”. The “inhibition of the synthesis of leukotrienes” value [3] was 76%, the “reduction of prostaglandin E2” value [3] was 40% and the “reduction of prostaglandin F2” value [3] was 81%.
For `CC(C)CCCC(C)CCCC(C)CCCC(C)CC(=O)O` (stereo not shown) [PhA, phytanic acid], the toxic dose [4] is listed as 0.1 μmol/mg fat.
